Measured values: patent publication US12528802B2, “Heterocyclic compound” (Takeda Pharmaceutical Company Limited, priority 2019, dated 2026)

What follows are molecules tested against T1, glucosylceramide synthase (Homo sapiens, UniProt Q16739) (assay: Glucosylceramide synthase (GCS) enzyme assay, microsome fraction, C8 glucosylceramide quantified by Rapidfire MS/MS). Conditions: test compound 10 μM; 1.7 μM UDP-glucose, 3 μM C8 ceramide; room temperature 60 min.
T1 construct: made in house; host or cells: Expi293F cells (transient expression, pcDNA3.3-TOPO vector); microsome fraction used as enzyme source
T1 sequence (Q16739 1-394): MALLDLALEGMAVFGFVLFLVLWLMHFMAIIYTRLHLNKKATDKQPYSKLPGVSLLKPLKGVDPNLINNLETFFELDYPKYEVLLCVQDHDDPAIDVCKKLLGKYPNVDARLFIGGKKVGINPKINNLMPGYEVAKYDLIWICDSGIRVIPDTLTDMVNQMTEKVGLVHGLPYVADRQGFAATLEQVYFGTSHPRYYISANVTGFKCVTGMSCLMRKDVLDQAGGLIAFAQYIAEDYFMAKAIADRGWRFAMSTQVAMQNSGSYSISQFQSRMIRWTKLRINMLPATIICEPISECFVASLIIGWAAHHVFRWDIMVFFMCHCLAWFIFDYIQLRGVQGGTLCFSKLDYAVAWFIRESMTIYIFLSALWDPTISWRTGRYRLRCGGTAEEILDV
Type: biochemical
How it was run: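 Test compound, 10 μM final, was run against human GCS from transfected Expi293F microsome fractions, using substrate solution of 6 μM C8 ceramide (in DOPC liposomes) plus 3.4 μM UDP-glucose, pH 7.5 Tris buffer, 60 min, room temperature. Product C8 glucosylceramide measured by Rapidfire MS/MS against an internal standard, % inhibition referenced to no-enzyme and DMSO wells.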

GCS enzyme inhibitory rate at 10 μM (%) (% of control) | SMILES
97 | O=C1c2ccnc(-c3ccc(F)cc3OCC(F)(F)F)c2CN1c1ccc(C2(O)CCOC2)cn1 (single isomer, unassigned) [Example 301, (R or S)-4-[4-fluoro-2-(2,2,2-trifluoroethoxy)phenyl]-2-[5-(3-hydroxyoxolan-3-yl)pyridin-2-yl]-2,3-dihydro-1H-pyrrolo [3,4-c]pyridin-1-one]

Same assay, conditions: test compound 10 μM; 1.7 μM UDP-glucose, 3 μM C8 ceramide; room temperature 60 min; read-out: GCS enzyme inhibitory rate at 10 μM (%) (% of control)

inhibition at 10 µM [%] | SMILES
96 | COc1ccccc1-c1nccc2c1CN(c1ccc(OC(F)(F)F)cn1)C2=O [Example 29, 4-(2-methoxyphenyl)-2-[5-(trifluoromethoxy)pyridin-2-yl]-2,3-dihydro-1H-pyrrolo[3,4-c]pyridin-1-one]
99 | N#Cc1ccc(N2Cc3c(ccnc3-c3ccc(F)cc3OCC(F)(F)F)C2=O)nc1 [Example 71, 6-{4-[4-fluoro-2-(2,2,2-trifluoroethoxy)phenyl]-1-oxo-1,3-dihydro-2H-pyrrolo[3,4-c]pyridin-2-yl}pyridine-3-carbonitrile]
98 | CC(C)(O)c1ccc(N2Cc3c(ccnc3-c3ccc(F)cc3OCC(F)F)C2=O)nc1 [Example 289, 4-[2-(2,2-difluoroethoxy)-4-fluorophenyl]-2-[5-(2-hydroxypropan-2-yl)pyridin-2-yl]-2,3-dihydro-1H-pyrrolo [3,4-c]pyridin-1-one]
71 | O=C1c2ncnc(-c3ccc(F)cc3OCC(F)(F)F)c2CN1c1ccc(F)cc1 [Example 185, 6-(4-fluorophenyl)-4-[4-fluoro-2-(2,2,2-trifluoroethoxy)phenyl]-5,6-dihydro-7H-pyrrolo[3,4-d]pyrimidin-7-one]
99 | O=C1c2ccnc(-c3ccc(F)cc3OCC(F)(F)F)c2CN1c1ccc(C2(O)CCOCC2)cc1 [Example 208, 4-[4-fluoro-2-(2,2,2-trifluoroethoxy)phenyl]-2-[4-(4-hydroxyoxatan-4-yl)phenyl]-2,3-dihydro-1H-pyrrolo[3,4-c]pyridin-1-one]
99 | COc1ccccc1-c1nccc2c1CN(c1ccc(C3CC3)cc1)C2=O [Example 4, 2-(4-cyclopropylphenyl)-4-(2-methoxyphenyl)-2,3-dihydro-1H-pyrrolo[3,4-c]pyridin-1-one]
96 | O=C1c2ccnc(-c3ccc(F)cc3OCC(F)(F)F)c2CN1c1ccc(S(=O)(=O)C(F)F)cc1 [Example 139, 2-[4-(difluoromethanesulfonyl)phenyl]-4-[4-fluoro-2-(2,2,2-trifluoroethoxy)phenyl]-2,3-dihydro-1H-pyrrolo[3,4-c]pyridin-1-one]
100 | CC(C)(O)c1ccc(N2Cc3c(ccnc3-c3ccccc3OCC(F)(F)F)C2=O)cc1F [Example 262, 2-[3-fluoro-4-(2-hydroxypropan-2-yl)phenyl]-4-[2-(2,2,2-trifluoroethoxy)phenyl]-2,3-dihydro-1H-pyrrolo[3,4-c]pyridin-1-one]
99 | N#CC1(c2ccc(N3Cc4c(ccnc4-c4ccc(F)cc4OCC(F)(F)F)C3=O)cc2)CCOCC1 [Example 218, 4-(4-{4-[4-fluoro-2-(2,2,2-trifluoroethoxy)phenyl]-1-oxo-1,3-dihydro-2H-pyrrolo[3,4-c]pyridin-2-yl}phenyl)oxan-4-carbonitrile]
73 | CN(C)C(=O)c1ccc(N2Cc3cnn(-c4ccccc4OCC(F)(F)F)c3C2)nc1 [Example 230, N,N-dimethyl-6-{1-[2-(2,2,2-trifluoroethoxy)phenyl]-4,6-dihydropyrrolo[3,4-c]pyrazol-5(1H)-yl}pyridine-3-carboxamide]
99 | O=C1c2ccnc(-c3ccc(F)cc3OCC3(F)CC3)c2CN1c1ccc(OC(F)F)cc1 [Example 128, 2-[4-(difluoromethoxy)phenyl]-4-{4-fluoro-2-[(1-fluorocyclopropyl)methoxy]phenyl}-2,3-dihydro-1H-pyrrolo[3,4-c]pyridin-1-one]
100 | Cn1cc2c(c(-c3ccc(F)cc3OCC(F)(F)F)c1=O)CN(c1ccc(OC(F)F)cc1)C2=O [Example 196, 2-[4-(difluoromethoxy)phenyl]-7-[4-fluoro-2-(2,2,2-trifluoroethoxy)phenyl]-5-methyl-1H-pyrrolo[3,4-c]pyridine-3,6(2H,5H)-dione]
94 | O=C1c2ccnc(-c3ccccc3OCC(F)(F)F)c2CN1c1ccc(F)cc1 [Example 42, 2-(4-fluorophenyl)-4-[2-(2,2,2-trifluoroethoxy)phenyl]-2,3-dihydro-1H-pyrrolo[3,4-c]pyridin-1-one]
70 | COc1cc(F)ccc1-c1nccc2c1CN(c1ccc(F)cc1)C2=O [Example 7, 4-(4-fluoro-2-methoxyphenyl)-2-(4-fluorophenyl)-2,3-dihydro-1H-pyrrolo[3,4-c]pyridin-1-one]
61 | COc1cc(C(=O)N2CCC2)ccc1-c1nccc2c1CN(c1ccc(F)cc1)C2=O [Example 120, 4-[4-(azetidine-1-carbonyl)-2-methoxyphenyl]-2-(4-fluorophenyl)-2,3-dihydro-1H-pyrrolo[3,4-c]pyridin-1-one]
97 | O=C1c2cc(C3CCOCC3)nc(-c3ccc(F)cc3OCC(F)(F)F)c2CN1c1ccc(F)cc1 [Example 382, 2-(4-fluorophenyl)-4-[4-fluoro-2-(2,2,2-trifluoroethoxy)phenyl]-6-(oxan-4-yl)-2,3-dihydro-1H-pyrrolo [3,4-c]pyridin-1-one]
100 | N#CC1(c2ccc(N3Cc4c(ccnc4-c4ccccc4OCC(F)(F)F)C3=O)cc2)CC1 [Example 271, 1-(4-{1-oxo-4-[2-(2,2,2-trifluoroethoxy)phenyl]-1,3-dihydro-2H-pyrrolo[3,4-c]pyridin-2-yl}phenyl)cyclopropane-1-carbonitrile]
86 | O=C1c2ccnc(-c3ccccc3OCC(F)(F)F)c2CN1c1ccc(C2(O)CC(O)C2)cc1 (stereo not drawn) [Example 228, (cis or trans)-2-[4-(1,3-dihydroxycyclobutyl)phenyl]-4-[2-(2,2,2-trifluoroethoxy)phenyl]-2,3-dihydro-1H-pyrrolo[3,4-c]pyridin-1-one]
96 | O=C1c2ccnc(-c3ccc(F)cc3OCC(F)(F)F)c2CN1c1ccc(OC(F)(F)F)cn1 [Example 58, 4-[4-fluoro-2-(2,2,2-trifluoroethoxy)phenyl]-2-[5-(trifluoromethoxy)pyridin-2-yl]-2,3-dihydro-1H-pyrrolo[3,4-c]pyridin-1-one]
96 | COC(=O)c1ccc(N2CC3=C(OC(C)CN=C3c3ccccc3OCC(F)(F)F)C2=O)cc1 (racemic) [Example 332, rac-methyl 4-{2-methyl-8-oxo-5-[2-(2,2,2-trifluoroethoxy)phenyl]-2,3,6,8-tetrahydro-7H-pyrrolo [3,4-f][1,4]oxazepin-7-yl}benzoate]
66 | COCCOc1cc(F)ccc1-c1nccc2c1CN(c1ccc(OC(F)F)nc1)C2=O [Example 113, 2-[6-(difluoromethoxy)pyridin-3-yl]-4-[4-fluoro-2-(2-methoxyethoxy)phenyl]-2,3-dihydro-1H-pyrrolo[3,4-c]pyridin-1-one]
68 | COc1cnc(C)cc1-c1nccc2c1CN(c1ccc(F)cc1)C2=O [Example 33, 2-(4-fluorophenyl)-4-(5-methoxy-2-methylpyridin-4-yl)-2,3-dihydro-1H-pyrrolo[3,4-c]pyridin-1-one]
100 | Cn1cc2c(c(-c3ccccc3OCC(F)(F)F)c1=O)CN(c1ccc(OCC(C)(C)O)cc1)C2=O [Example 350, 2-[4-(2-hydroxy-2-methylpropoxy)phenyl]-5-methyl-7-[2-(2,2,2-trifluoroethoxy)phenyl]-1H-pyrrolo[3,4-c]pyridine-3,6(2H,5H)-dione]
98 | O=C1c2ccnc(-c3ccc(F)cc3OCC(F)(F)F)c2CN1c1ccc(OC(F)F)cn1 [Example 55, 2-[5-(difluoromethoxy)pyridin-2-yl]-4-[4-fluoro-2-(2,2,2-trifluoroethoxy)phenyl]-2,3-dihydro-1H-pyrrolo[3,4-c]pyridin-1-one]
95 | O=C1c2ccnc(-c3ccc(F)cc3OCC(F)(F)F)c2CN1c1cnn(CC(F)F)c1 [Example 93, 2-[1-(2,2-difluoroethyl)-1H-pyrazol-4-yl]-4-[4-fluoro-2-(2,2,2-trifluoroethoxy)phenyl]-2,3-dihydro-1H-pyrrolo[3,4-c]pyridin-1-one]
89 | COc1ccc(N2Cc3c(ccnc3-c3ccccc3OC)C2=O)cc1 [Example 24, 4-(2-methoxyphenyl)-2-(4-methoxyphenyl)-2,3-dihydro-1H-pyrrolo[3,4-c]pyridin-1-one]
95 | COC(=O)c1ccc(N2CC3=C(OCCN=C3c3ccccc3OCC(F)(F)F)C2=O)cc1 [Example 335, methyl 4-{8-oxo-5-[2-(2,2,2-trifluoroethoxy)phenyl]-2,3,6,8-tetrahydro-7H-pyrrolo[3,4-f] [1,4]oxazepin-7-yl}benzoate]
99 | CC(O)(c1ccc(N2Cc3c(ccnc3-c3ccc(F)cc3OCC(F)(F)F)C2=O)cc1)C(F)(F)F (racemic) [Example 312, rac-4-[4-fluoro-2-(2,2,2-trifluoroethoxy)phenyl]-2-[4-(1,1,1-trifluoro-2-hydroxypropan-2-yl)phenyl]-2,3-dihydro-1H-pyrrolo [3,4-c]pyridin-1-one]
